How the values were obtained:
[1] = test system: skin allograft, WKAH donor and F344 recipients; format: in vivo
Excerpt: Two MHC-incompatible rat strains were selected, WKAH donor (RT1^k) and F344 recipients (RT1^IV1). Full-thickness skin grafts (2.0×2.0 cm square) were transplanted to the lateral thorax of recipients and wrapped with sterile, bactericidal gauze. The chest was then wrapped with an elastic bandage. Five days after transplantation, the wraps were removed and the grafts inspected daily for rejection. Rejection was defined as more than 90% necrosis of graft epithelium.

[2] = test system: cardiac allograft, WKAH donors and ACI recipients; experiment: Heterotopic cardiac allograft survival, MHC-incompatible rat strains; format: in vivo
[3] = test system: IL-2 mRNA in alloantigen-stimulated splenic T cells; experiment: IL-2 mRNA expression in allogeneic mixed lymphocyte culture (PCR); format: cell-based, rat; conditions: 48 hours
Procedure: The housekeeping gene HPRT was used as an internal control in order to compare levels of IL-2 mRNA levels relative to the HPRT mRNA levels, as detailed below.
Allogeneic mixed lymphocyte culture was carried out by using nylon-nonadherent spleen cells of F344 rat (RT1^1v1) as responder cells and the spleen cells of WKAH rat (RT1^k) pretreated with 40 μg/ml of mitomycin C for 30 min as stimulator cells. […] After culturing for 48 hours, the cells were recovered by centrifugation. The expression of IL-2 mRNA in the cells was determined by a polymerase chain reaction (PCR) method.
Total RNA was reverse transcribed in […] of buffer solution containing 10 mmol/L Tris-HCl (pH 8.3),50 mM KCl, 5 mM MgCl2, 1 mM each dNTP (dATP, dGTP, dTTP and dCTP), 60 U RNase inhibitor (Takara Ltd. Tokyo, Japan), 15 U avian myelobalastosis virus reverse transcriptase (Takara Ltd.) and 150 pmol random 9-mers at 30° C. for 10 min and 42° C. for 30 min. Primer sequences for IL-2 and hypoxanthine-guanine phosphoribosyltransferase (HPRT) were taken from the previous report (44).
The length in base pairs of the PCR products of IL-2 and HPRT are 351 and 608 bp respectively. […] Fluorescence intensity of the specific bands was visualized by fluorescence image analyzer (FLUOR IMAGER 575®, Molecular Dynamics).

In the case of `C=CC[C@@H]1/C=C(\C)C[C@H](C)C[C@H](OC)[C@H]2O[C@@](O)(C(=O)C(=O)N3CCCC[C@H]3C(=O)O[C@H](/C(C)=C/[C@@H]3CC[C@@H](O)[C@H](OC)C3)[C@H](C)[C@@H](O)CC1=O)[C@H](C)C[C@@H]2OC` [TRL, tacrolimus, reference compound], the “median survival time (MST) of skin graft” value ([1]; 10 mg/kg for 14 days) is reported as 22.5 days, the “oral dose that significantly prolonged skin graft survival” value ([1]; oral, WKAH to F344 rats) is reported as no less than 0.3 mg/kg and the “induction of long-term cardiac graft survival” value ([2]; even at the highest dose tested) is reported as “hardly induced long-term graft survival”. For the same molecule, the “dose that significantly prolonged cardiac allograft survival” value ([2]; vs control) was no less than 1 mg/kg and the “concentration that inhibited IL-2 mRNA expression” value [3] was no less than 1 nM.
